Data on three molecules can be found in patent US20200385489A1, “USING COLIPASE INHIBITORS TO TREAT PANCREATITIS” (Mayo Foundation for Medical Education and Research, priority 2015, published 2020).

The test system of one experiment is adipocytes. The experiment is described as follows: Isoproterenol induced lipolysis in adipocytes (glycerol release). Format: cell-based. Particulars: Iso 10 μM; inhibitor 50 μM. The method, then: (§1) Adipocytes were stimulated by isoproterenol (Iso 10 μM) or co-cultured with pancreatic acini. The adipose triglyceride lipase (ATGL) inhibitor atglistatin or the pancreatic lipase inhibitor orlistat (50 μM each) was added in some conditions.
Glycerol release was measured as a marker of lipolysis in adipocytes. Isoproterenol induced lipolysis in adipocytes.

Experiment [1] relates to rats with lethal pancreatitis. Put plainly: Caerulein plus glyceryl trioleate lethal pancreatitis in rats. Format: in vivo, rat. Particulars: orlistat 50 mg/kg. The method, then:
Pancreatitis was induced in rats and flow cytometry was performed on white blood cells (WBCs) from peripheral blood.
Rats (100 gm rats) were either given caerulein (20 mcg/kg BID (twice a day) intraperitoneally) to induce pancreatitis or left untreated as control animals. Some rats were also given glyceryl trioleate (3 ml intraperitoneally) to induce lactate dehydrogenase (LDH) leakage. Some rats also received the lipase inhibitor orlistat (50 mg/kg). Blood was collected from rats 2 days after induction of caerulein pancreatitis with or without administration of caerulein, glyceryl trioleate, and/or orlistat.

In another experiment the test system is pancreatic acini. Put plainly: Adipocyte induced necrosis in pancreatic acini (co-culture). The format is cell-based. Particulars: inhibitor 50 μM. The method, then:
as §1
Co-culture of adipocytes and pancreatic acini induced necrosis in the acini.

For a further experiment, the system named is Rat parotid acini. The experiment is described as follows: LDH leakage from rat parotid acini exposed to glyceryl trilinoelate, human PTL and human colipase. Format: cell-based. Particulars: glyceryl trilinoelate 300 micromolar + human PTL 1 micrograms/mL + human colipase 0.25 micrograms/mL; orlistat 50 micromolar or serum 1:4 dilution; over 4 hours. The method, then:
Cells exposed to glyceryl trilinoelate, PTL, and colipase were treated at a 1:4 dilution with either orlistat (50 micromolar), serum from mice immunized against human colipase, or serum from unimmunized mice. […] (LDH) leakage into the medium was measured over 4 hours.
Background: LDH in the medium is a marker of cell lysis.

Experiment [2] relates to Differentiated 3T3-LI adipocytes. Put plainly: Glycerol release (lipolysis) from PTL-transfected 3T3-LI adipocytes with colipase. Format: cell-based. The following applies: PTL + colipase 0.25 mcg/mL; orlistat 20 micromolar every 2 hours; over 8 hours. The method, then:
Differentiated 3T3-LI adipocytes with lipid droplets were transfected with adenovirus expressing pancreatic triglyceride lipase (PTL) to induce lactate dehydrogenase (LDH) leakage or left as unstimulated controls. The medium was replaced with serum free medium alone or with colipase (0.25 mcg/mL). In some wells the lipase inhibitor orlistat (20 micromolar) was added every 2 hours. LDH leakage into the medium was measured as a marker of cell injury. […] Colipase increased this to 30-40% LDH leakage compared to controls. […] Glycerol release was measure as a marker of lipolysis. […] Colipase increased glycerol release compared to controls. Glycerol release was prevented by the lipase inhibitor orlistat (FIG. 3B).

The test system is the same in experiment [3]. Put plainly: IL-6 release from PTL-transfected 3T3-LI adipocytes with colipase (luminex). The format is cell-based. The following applies: PTL + colipase 0.25 mcg/mL; orlistat 20 micromolar every 2 hours. The method, then: Differentiated 3T3-LI adipocytes with lipid droplets were transfected with adenovirus expressing pancreatic triglyceride lipase (PTL) or left as unstimulated controls. The medium was replaced with serum free medium alone or with colipase (0.25 mcg/mL). In some wells the lipase inhibitor orlistat (20 micromolar) was added every 2 hours. Cytokine release was measured as a marker of inflammatory response. IL-6 release into the medium was measured by luminex. There was a significant release of IL-6 only when both colipase and PTL were present. This release was prevented by orlistat (FIG. 6A).

Experiment [4] shares this test system. The experiment is described as follows: LDH leakage from PTL-transfected 3T3-LI adipocytes with colipase. The format is cell-based. The following applies: over 8 hours. The method, then: Differentiated 3T3-LI adipocytes with lipid droplets were transfected with adenovirus expressing pancreatic triglyceride lipase (PTL) to induce lactate dehydrogenase (LDH) leakage or left as unstimulated controls. The medium was replaced with serum free medium alone or with colipase (0.25 mcg/mL). In some wells the lipase inhibitor orlistat (20 micromolar) was added every 2 hours.
LDH leakage into the medium was measured as a marker of cell injury. […] Colipase increased this to 30-40% LDH leakage compared to controls. […] Glycerol release was measure as a marker of lipolysis. […] Colipase increased glycerol release compared to controls. Glycerol release was prevented by the lipase inhibitor orlistat (FIG. 3B).

For experiment [5] the test system is unchanged. Put plainly: MCP-1 release from PTL-transfected 3T3-LI adipocytes with colipase (luminex). The following applies: PTL + colipase 0.25 mcg/mL; orlistat 20 micromolar every 2 hours. The format is cell-based. The method, then:
Differentiated 3T3-LI adipocytes with lipid droplets were transfected with adenovirus expressing pancreatic triglyceride lipase (PTL) or left as unstimulated controls. The medium was replaced with serum free medium alone or with colipase (0.25 mcg/mL). In some wells the lipase inhibitor orlistat (20 micromolar) was added every 2 hours. Cytokine release was measured as a marker of inflammatory response. MCP-1 release into the medium was measured by luminex. There was a significant release of MCP-1 only when both colipase and PTL were present. This release was prevented by orlistat (FIG. 6B).

Take `CN(C)C(=O)Nc1cccc(-c2ccc(N(C)C)cc2)c1` [atglistatin]: in the experiment with adipocytes, the “Isoproterenol induced lipolysis (glycerol release)” value is on record as “inhibited”.
`CCCCCCCCCCC[C@@H](C[C@@H]1OC(=O)[C@H]1CCCCCC)OC(=O)[C@H](CC(C)C)NC=O` [orlistat]: in experiment [1] (caerulein + glyceryl trioleate (97% mortality by day 3 without treatment)), the Survival entry is recorded as “survive”. Also, in experiment [1] (caerulein + glyceryl trioleate, blood 2 days after induction), the “Apoptosis of circulating cells (annexin V positive CD11b)” value is listed as “prevented”. In the experiment on pancreatic acini, the “Adipocyte induced necrosis in pancreatic acini as measured by glycerol release” value was “inhibited” and the “Adipocyte induced necrosis in pancreatic acini as measured by propidium iodide uptake” value is “inhibited”. Further, the “LDH leakage into the medium” value in the experiment on Rat parotid acini was “significantly reduced”. The “Glycerol release (marker of lipolysis)” value in experiment [2] was “prevented”. Besides, the “IL-6 release into the medium” value in experiment [3] is recorded as “prevented”. For the same molecule, the “LDH leakage into the medium (marker of cell injury)” value in experiment [4] (PTL + colipase 0.25 mcg/mL, orlistat 20 micromolar added every 2 hours) is listed as “completely prevented”. Moreover, the “MCP-1 release into the medium” value in experiment [5] is “prevented”. In addition, in the experiment with adipocytes, the “Isoproterenol induced lipolysis (glycerol release)” value is “but not orlistat, inhibited”.

B1: Colipase: colipase polypeptide added to the medium (0.25 mcg/mL) as cofactor of pancreatic lipases (protein, UniProt P04118 23-112, looked up)
Colipase: GIIINLENGELCMNSAQCKSNCCQHSSALGLARCTSMASENSECSVKTLYGIYYKCPCERGLTCEGDKTIVGSITNTNFGICHDAGRSKQ
For B1, in experiment [4] (PTL-transfected adipocytes, colipase 0.25 mcg/mL), the “LDH leakage compared to controls” value is on record as 30-40%.
